“Also recorded” adds a separate entry of the source.
What was measured:
AR = target: T1, AR (Homo sapiens, UniProt P10275); assay: AR/DHT mediated PSA transcriptional activity (luciferase reporter) in DU145 cells; type: cell-based; conditions: 1 μM of HF, 1 nM DHT, DU145 cells cotransfected with AR
T1 sequence (P10275 1-920): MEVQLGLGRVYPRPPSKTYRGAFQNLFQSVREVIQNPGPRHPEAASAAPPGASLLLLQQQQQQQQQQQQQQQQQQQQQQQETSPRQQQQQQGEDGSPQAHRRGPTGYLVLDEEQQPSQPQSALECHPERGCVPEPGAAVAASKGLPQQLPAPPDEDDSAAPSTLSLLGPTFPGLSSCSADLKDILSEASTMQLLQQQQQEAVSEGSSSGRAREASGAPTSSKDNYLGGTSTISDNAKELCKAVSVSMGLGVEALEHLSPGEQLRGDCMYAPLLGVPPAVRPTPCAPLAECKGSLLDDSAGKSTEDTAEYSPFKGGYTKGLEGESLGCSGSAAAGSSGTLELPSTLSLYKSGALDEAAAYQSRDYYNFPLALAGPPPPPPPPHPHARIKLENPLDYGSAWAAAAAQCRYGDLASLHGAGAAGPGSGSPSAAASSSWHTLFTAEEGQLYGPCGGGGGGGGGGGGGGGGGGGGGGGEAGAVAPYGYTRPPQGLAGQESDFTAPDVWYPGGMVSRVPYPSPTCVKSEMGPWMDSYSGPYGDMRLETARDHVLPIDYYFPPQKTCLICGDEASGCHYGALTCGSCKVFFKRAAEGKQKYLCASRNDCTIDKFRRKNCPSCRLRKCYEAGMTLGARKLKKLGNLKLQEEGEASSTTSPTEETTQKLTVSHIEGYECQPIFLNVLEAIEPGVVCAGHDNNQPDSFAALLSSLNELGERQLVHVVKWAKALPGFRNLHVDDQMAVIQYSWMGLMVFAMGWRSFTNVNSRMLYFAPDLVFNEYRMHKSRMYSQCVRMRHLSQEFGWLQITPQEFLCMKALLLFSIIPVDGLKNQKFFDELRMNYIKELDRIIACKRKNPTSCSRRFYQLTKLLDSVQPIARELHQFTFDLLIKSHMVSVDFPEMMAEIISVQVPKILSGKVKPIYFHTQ

DU145 cells = assay: Cell proliferation assay (hemacytometer counting); type: cell-based, human
Experimental: 10. […] (A) DU145 cells were seeded in 10% FBS DMEM medium and 24 hours later cells were changed to serum free medium. 48 hours later changed the medium to 0.5% FBS medium and treated with ethanol, HF, or EGF. Every 24 hours, the cells were counted by hemacytometer. […]. […] (B) DU145 cells were seeded and transfected with anti-sense oligonucleotide of Ras (IRIS 2503: 5′-[…]-3′), Raf (IIUS: 5132:5′-[…]-3′) and HIV (5′-[…]-3′) (Chen, G., Oh, S., Monia B. P., and Stacey, D. W., J. Biol. Chem., 271: 28259-28265, 1996, Monia, B. P., et al., Proc. Natl. Acad. Sci. USA, 93: 15481-15484, 1996.) by SuperFect (Qiagen). 24 hour after serum starvation, we changed the cells to medium containing 0.5% FBS, and treated the cells as described in A. Cells were counted by hemacytometer every 24 hours. The cell lysate were blotted with anti-H-Ras and Raf antibodies and β-actin was blotted for loading control.
199. DU145 cells were seeded at 2×10^4/ml on 35 mm plates and allowed to attach overnight. Cells were kept in serum-free DMEM medium for 24 hours, and then media were replaced with DMEM-0.5% FBS and treated as indicated. Cells were trypsinized and counted with a hemacytometer at different times after treatments. For the antisense oligonuleotide experiments, cells were incubated with a fixed ratio of oligonucleotide versus SuperFect (2.5 μl of SuperFect per 100 nM oligo) for 4 hours and then the oligo-containing medium was replaced with DMEM-0.5% FBS. Cells were trypsinized and counted by hemacytometer at indicated times.

Question: For CC(C)(O)C(=O)Nc1ccc([N+](=O)[O-])c(C(F)(F)F)c1 [HF, hydroxyflutamide], which “DHT induced PSA-Luc activity” value (AR) is on record?
Answer: The value was “represses DHT induced PSA-Luc activity”.

Question: What about the cell proliferation (DU145 cells; cells maintained in 10% FBS medium (data not shown)) of the same molecule?
Answer: The cell proliferation was “no significant stimulation of cell proliferation”.

Question: What about the cell proliferation (DU145 cells; low serum (0.5% FBS) after serum starvation) of the same molecule?
Answer: Its cell proliferation is “stimulate the DU 145 cell growth significant; also recorded: can promote cell proliferation”.

Reference: patent US20060270643A1, “Hyfroxyflutamide induced pathways related to androgen receptor negative prostate cancer cells” (priority 2002, published 2006)
